Measurements as given in patent US20230365592A1 (Agios Pharmaceuticals, Inc., priority 2022, published 2023).

What follows are molecules tested against T1, human PAH with the R408W mutation (Homo sapiens, UniProt P00439, R408W) (assay: Cell Based Phenylalanine Flux Assay). Details: A375 cells expressing human PAH R408W; 24 hrs compound incubation; 13C-Tyrosine by LC-MS; average where tested multiple times; read-out: AC50.
T1 construct: expressed in transfected cells
T1 sequence (P00439 1-452 R408W): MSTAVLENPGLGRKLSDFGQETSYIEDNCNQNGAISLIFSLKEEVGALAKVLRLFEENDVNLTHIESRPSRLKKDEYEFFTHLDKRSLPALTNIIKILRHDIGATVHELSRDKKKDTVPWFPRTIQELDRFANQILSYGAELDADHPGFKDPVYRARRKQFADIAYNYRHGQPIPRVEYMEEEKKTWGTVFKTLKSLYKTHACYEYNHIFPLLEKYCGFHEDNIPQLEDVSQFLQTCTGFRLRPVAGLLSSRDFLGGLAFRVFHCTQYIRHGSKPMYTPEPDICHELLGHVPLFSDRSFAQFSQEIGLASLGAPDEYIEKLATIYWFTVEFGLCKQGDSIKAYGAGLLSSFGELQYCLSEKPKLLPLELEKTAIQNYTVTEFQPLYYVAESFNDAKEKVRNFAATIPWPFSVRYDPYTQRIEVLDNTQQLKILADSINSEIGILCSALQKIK
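Further: after compound treatment, cells received sepiapterin plus isotope-labelled Phenylalanine for 4 hours, then labelled Tyrosine in the medium was quantified, 10-point 2-fold dilution series run in duplicate.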

Row | Compound | AC50
1 | CC(F)(F)c1nnc(N2CCc3[nH]cnc3[C@H]2c2cc3c(C(F)(F)F)cccn3n2)o1 [Example 2195, (S)-2-(1,1-difluoroethyl)-5-(4-(4-(trifluoromethyl)pyrazolo[1,5-a]pyridin-2-yl)-1,4,6,7-tetrahydro-5H-imidazo[4,5-c]pyridin-5-yl)-1,3,4-oxadiazole] | < 500 nM
2 | COc1cccn2nc([C@@H]3c4nc[nH]c4CCN3c3ncc(C(F)(F)F)cn3)cc12 [Example 2200, (S)-4-(4-methoxypyrazolo[1,5-a]pyridin-2-yl)-5-(5-(trifluoromethyl)pyrimidin-2-yl)-4,5,6,7-tetrahydro-1H-imidazo[4,5-c]pyridine] | < 500 nM
3 | COc1cccn2nc([C@H]3c4nc[nH]c4CCN3c3ncc(C(F)(F)F)cn3)cc12 [Example 2201, (R)-4-(4-methoxypyrazolo[1,5-a]pyridin-2-yl)-5-(5-(trifluoromethyl)pyrimidin-2-yl)-4,5,6,7-tetrahydro-1H-imidazo[4,5-c]pyridine] | > 5000 nM
4 | CC(F)(F)c1nnc(N2CCc3[nH]cnc3[C@H]2c2cc3c(C(F)F)cccn3n2)o1 [Example 2203, (S)-2-(1,1-difluoroethyl)-5-(4-(4-(difluoromethyl)pyrazolo[1,5-a]pyridin-2-yl)-1,4,6,7-tetrahydro-5H-imidazo[4,5-c]pyridin-5-yl)-1,3,4-oxadiazole] | < 500 nM
5 | Cc1ncccc1-c1nnc(N2CCc3[nH]cnc3[C@@H]2c2cc3c(C)cccn3n2)o1 [Example 2207, (R)-2-(4-(4-methylpyrazolo[1,5-a]pyridin-2-yl)-1,4,6,7-tetrahydro-5H-imidazo[4,5-c]pyridin-5-yl)-5-(2-methylpyridin-3-yl)-1,3,4-oxadiazole] | > 5000 nM
6 | FC(F)c1nnc(N2CCc3[nH]cnc3[C@@H]2c2cc3cccc(C(F)F)n3n2)o1 [Example 2220, (R)-2-(difluoromethyl)-5-(4-(7-(difluoromethyl)pyrazolo[1,5-a]pyridin-2-yl)-1,4,6,7-tetrahydro-5H-imidazo[4,5-c]pyridin-5-yl)-1,3,4-oxadiazole] | > 5000 nM
7 | FC(F)c1nnc(N2CCc3[nH]cnc3[C@H]2c2cc3cccc(C(F)F)n3n2)o1 [Example 2221, (S)-2-(difluoromethyl)-5-(4-(7-(difluoromethyl)pyrazolo[1,5-a]pyridin-2-yl)-1,4,6,7-tetrahydro-5H-imidazo[4,5-c]pyridin-5-yl)-1,3,4-oxadiazole] | 1000 to 5000 nM
8 | Cc1ncccc1-c1nnc(N2CCc3[nH]cnc3[C@H]2c2cc3c(Cl)cccn3n2)o1 [Example 2236, (S)-2-(4-(4-chloropyrazolo[1,5-a]pyridin-2-yl)-1,4,6,7-tetrahydro-5H-imidazo[4,5-c]pyridin-5-yl)-5-(2-methylpyridin-3-yl)-1,3,4-oxadiazole] | < 500 nM
9 | c1ccc(N2CCc3[nH]cnc3[C@@H]2c2cc3ccccn3n2)cc1 [Example 2238, (R)-5-phenyl-4-(pyrazolo[1,5-a]pyridin-2-yl)-4,5,6,7-tetrahydro-1H-imidazo[4,5-c]pyridine] | 1000 to 5000 nM
10 | c1ccc(N2CCc3[nH]cnc3[C@H]2c2cc3ccccn3n2)cc1 [Example 2239, (S)-5-phenyl-4-(pyrazolo[1,5-a]pyridin-2-yl)-4,5,6,7-tetrahydro-1H-imidazo[4,5-c]pyridine] | < 500 nM
11 | O=C(c1cnc(-c2cnccn2)o1)N1CCc2[nH]cnc2[C@@H]1c1cc2c(C(F)(F)F)cccn2n1 [Example 2245, (R)-(2-(pyrazin-2-yl)oxazol-5-yl)(4-(4-(trifluoromethyl)pyrazolo[1,5-a]pyridin-2-yl)-1,4,6,7-tetrahydro-5H-imidazo[4,5-c]pyridin-5-yl)methanone] | > 5000 nM
12 | COc1cccn2nc([C@H]3c4nc[nH]c4CCN3c3ccc(C(F)(F)F)cn3)cc12 [Example 2246, (R)-4-(4-methoxypyrazolo[1,5-a]pyridin-2-yl)-5-(5-(trifluoromethyl)pyridin-2-yl)-4,5,6,7-tetrahydro-1H-imidazo[4,5-c]pyridine] | > 5000 nM

Further lines, results first:

Row | AC50 | Compound
13 | 500 to 1000 nM | CC(F)(F)c1nnc(N2CCc3[nH]cnc3[C@H]2c2cc3c(F)cccn3n2)o1 [Example 2197, (S)-2-(1,1-difluoroethyl)-5-(4-(4-fluoropyrazolo[1,5-a]pyridin-2-yl)-1,4,6,7-tetrahydro-5H-imidazo[4,5-c]pyridin-5-yl)-1,3,4-oxadiazole]
14 | 500 to 1000 nM | Clc1cccn2nc([C@@H]3c4nc[nH]c4CCN3c3nnc(-c4cccnn4)o3)cc12 [Example 2198, (S)-2-(4-(4-chloropyrazolo[1,5-a]pyridin-2-yl)-1,4,6,7-tetrahydro-5H-imidazo[4,5-c]pyridin-5-yl)-5-(pyridazin-3-yl)-1,3,4-oxadiazole]
15 | > 5000 nM | CC(F)(F)c1nnc(N2CCc3[nH]cnc3[C@@H]2c2cc3c(C(F)F)cccn3n2)o1 [Example 2202, (R)-2-(1,1-difluoroethyl)-5-(4-(4-(difluoromethyl)pyrazolo[1,5-a]pyridin-2-yl)-1,4,6,7-tetrahydro-5H-imidazo[4,5-c]pyridin-5-yl)-1,3,4-oxadiazole]
16 | < 500 nM | CC(F)(F)c1nnc(N2CCc3[nH]cnc3[C@H]2c2cc3c(C4CC4)cccn3n2)o1 [Example 2205, (S)-2-(4-(4-cyclopropylpyrazolo[1,5-a]pyridin-2-yl)-1,4,6,7-tetrahydro-5H-imidazo[4,5-c]pyridin-5-yl)-5-(1,1-difluoroethyl)-1,3,4-oxadiazole]
17 | 1000 to 5000 nM | O=C([C@H]1CC1(F)F)N1CCc2[nH]cnc2[C@H]1c1cc2c(F)cccn2n1 [Example 2223, ((R)-2,2-difluorocyclopropyl)((S)-4-(4-fluoropyrazolo[1,5-a]pyridin-2-yl)-1,4,6,7-tetrahydro-5H-imidazo[4,5-c]pyridin-5-yl)methanone]
18 | 1000 to 5000 nM | c1cc(C2CC2)c2cc([C@H]3c4nc[nH]c4CCN3c3cnccn3)nn2c1 [Example 2224, (R)-4-(4-cyclopropylpyrazolo[1,5-a]pyridin-2-yl)-5-(pyrazin-2-yl)-4,5,6,7-tetrahydro-1H-imidazo[4,5-c]pyridine]
19 | < 500 nM | c1cc(C2CC2)c2cc([C@@H]3c4nc[nH]c4CCN3c3cnccn3)nn2c1 [Example 2225, (S)-4-(4-cyclopropylpyrazolo[1,5-a]pyridin-2-yl)-5-(pyrazin-2-yl)-4,5,6,7-tetrahydro-1H-imidazo[4,5-c]pyridine]
20 | < 500 nM | CC(C)c1cccn2nc([C@@H]3c4nc[nH]c4CCN3c3nnc(C(C)(F)F)o3)cc12 [Example 2231, (S)-2-(1,1-difluoroethyl)-5-(4-(4-isopropylpyrazolo[1,5-a]pyridin-2-yl)-1,4,6,7-tetrahydro-5H-imidazo[4,5-c]pyridin-5-yl)-1,3,4-oxadiazole]
21 | 500 to 1000 nM | Cc1ncccc1-c1nnc(N2CCc3[nH]cnc3[C@H]2c2cc3c(C(C)C)cccn3n2)o1 [Example 2234, (S)-2-(4-(4-isopropylpyrazolo[1,5-a]pyridin-2-yl)-1,4,6,7-tetrahydro-5H-imidazo[4,5-c]pyridin-5-yl)-5-(2-methylpyridin-3-yl)-1,3,4-oxadiazole]
22 | > 5000 nM | Cc1ncccc1-c1nnc(N2CCc3[nH]cnc3[C@@H]2c2cc3c(C(C)C)cccn3n2)o1 [Example 2235, (R)-2-(4-(4-isopropylpyrazolo[1,5-a]pyridin-2-yl)-1,4,6,7-tetrahydro-5H-imidazo[4,5-c]pyridin-5-yl)-5-(2-methylpyridin-3-yl)-1,3,4-oxadiazole]
23 | 500 to 1000 nM | Cc1cccn2nc([C@@H]3c4nc[nH]c4CCN3C(=O)c3cnc(-c4cnccn4)o3)cc12 [Example 2240, (S)-(4-(4-methylpyrazolo[1,5-a]pyridin-2-yl)-1,4,6,7-tetrahydro-5H-imidazo[4,5-c]pyridin-5-yl)(2-(pyrazin-2-yl)oxazol-5-yl)methanone]
24 | > 5000 nM | Cc1cccn2nc([C@H]3c4nc[nH]c4CCN3C(=O)c3cnc(-c4cnccn4)o3)cc12 [Example 2241, (R)-(4-(4-methylpyrazolo[1,5-a]pyridin-2-yl)-1,4,6,7-tetrahydro-5H-imidazo[4,5-c]pyridin-5-yl)(2-(pyrazin-2-yl)oxazol-5-yl)methanone]
25 | 500 to 1000 nM | O=C(c1cnc(-c2cnccn2)o1)N1CCc2[nH]cnc2[C@H]1c1cc2c(C(F)(F)F)cccn2n1 [Example 2244, (S)-(2-(pyrazin-2-yl)oxazol-5-yl)(4-(4-(trifluoromethyl)pyrazolo[1,5-a]pyridin-2-yl)-1,4,6,7-tetrahydro-5H-imidazo[4,5-c]pyridin-5-yl)methanone]
26 | < 500 nM | COc1cccn2nc([C@@H]3c4nc[nH]c4CCN3c3ccc(C(F)(F)F)cn3)cc12 [Example 2247, (S)-4-(4-methoxypyrazolo[1,5-a]pyridin-2-yl)-5-(5-(trifluoromethyl)pyridin-2-yl)-4,5,6,7-tetrahydro-1H-imidazo[4,5-c]pyridine]
27 | < 500 nM | Cc1nnc(N2CCc3[nH]cnc3[C@H]2c2cc3c(OC(F)(F)F)cccn3n2)o1 [Example 2249, (S)-2-methyl-5-(4-(4-(trifluoromethoxy)pyrazolo[1,5-a]pyridin-2-yl)-1,4,6,7-tetrahydro-5H-imidazo[4,5-c]pyridin-5-yl)-1,3,4-oxadiazole]
28 | < 500 nM | FC(F)(F)Oc1cccn2nc([C@@H]3c4nc[nH]c4CCN3c3nnc(C(F)(F)F)o3)cc12 [Example 2253, (S)-2-(4-(4-(trifluoromethoxy)pyrazolo[1,5-a]pyridin-2-yl)-1,4,6,7-tetrahydro-5H-imidazo[4,5-c]pyridin-5-yl)-5-(trifluoromethyl)-1,3,4-oxadiazole]
